Results from PubChem BioAssay (NCI).
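Results reflect a 48-hour exposure of cells in 96-well plates to compound at five concentrations. GI50 = concentration required for 50% inhibition of growth. TGI is the concentration that stops growth completely.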

Experiments:
Test in all cases: inhibition of tumour cell growth, NCI panel, 48 h
[1] = tested on: 786-0 renal
[2] = tested on: A498 renal
[3] = tested on: A549 NSCLC
[4] = tested on: ACHN renal
[5] = tested on: BT-549 breast
[6] = tested on: CAKI-1 renal
[7] = tested on: CCRF-CEM leukemia
[8] = tested on: COLO 205 colon
[9] = tested on: DU-145 prostate
[10] = tested on: EKVX NSCLC
[11] = tested on: HCC-2998 colon
[12] = tested on: HCT-116 colon
[13] = tested on: HCT-15 colon
[14] = tested on: HL-60(TB) leukemia
[15] = tested on: HOP-62 NSCLC
[16] = tested on: HOP-92 NSCLC
[17] = tested on: HS 578T breast
[18] = tested on: HT29 colon
[19] = tested on: IGROV1 ovarian
[20] = tested on: K-562 leukemia
[21] = tested on: KM12 colon
[22] = tested on: LOX IMVI melanoma
[23] = tested on: M14 melanoma
[24] = tested on: MALME-3M melanoma
[25] = tested on: MCF7 breast
[26] = tested on: MDA-MB-231 breast
[27] = tested on: MDA-MB-435
[28] = tested on: NCI-H226 lung
[29] = tested on: NCI-H23 lung
[30] = tested on: NCI-H460 lung
[31] = tested on: NCI-H522 lung
[32] = tested on: NCI/ADR-RES ovarian
[33] = tested on: OVCAR-3 ovarian
[34] = tested on: OVCAR-4 ovarian
[35] = tested on: OVCAR-5 ovarian
[36] = tested on: OVCAR-8 ovarian
[37] = tested on: PC-3 prostate
[38] = tested on: RPMI-8226 leukemia
[39] = tested on: RXF 393 renal
[40] = tested on: SF-268 CNS
[41] = tested on: SF-295 CNS
[42] = tested on: SF-539 CNS
[43] = tested on: SK-MEL-2 melanoma
[44] = tested on: SK-MEL-28 melanoma
[45] = tested on: SK-MEL-5 melanoma
[46] = tested on: SK-OV-3 ovarian
[47] = tested on: SN12C renal
[48] = tested on: SNB-19 CNS
[49] = tested on: SNB-75 CNS
[50] = tested on: SW-620 colon
[51] = tested on: T-47D breast
[52] = tested on: TK-10 renal
[53] = tested on: U251 CNS
[54] = tested on: UACC-257 melanoma
[55] = tested on: UACC-62 melanoma
[56] = tested on: UO-31 renal

COc1cc2c(cc1OC)C(C(CCCCCC(CCC(C)C)C1NCCc3cc(OC)c(OC)cc31)CCC(C)C)NCC2 (configuration not stated)
GI50 [1]: 1730 nM
TGI [1]: 3460 nM
GI50 [2]: 1510 nM
TGI [2]: 2990 nM
GI50 [3]: 980 nM
TGI [3]: 2440 nM
GI50 [4]: 1680 nM
TGI [4]: 3170 nM
GI50 [5]: 1720 nM
TGI [5]: 3120 nM
GI50 [6]: 1550 nM
TGI [6]: 3190 nM
GI50 [7]: 489 nM
TGI [7]: 2130 nM
GI50 [8]: 225 nM
TGI [8]: 464 nM
GI50 [9]: 1190 nM
TGI [9]: 2550 nM
GI50 [10]: 1490 nM
TGI [10]: 3200 nM
GI50 [11]: 188 nM
TGI [11]: 357 nM
GI50 [12]: 199 nM
TGI [12]: 388 nM
GI50 [13]: 274 nM
TGI [13]: 851 nM
GI50 [14]: 878 nM
TGI [14]: 2550 nM
GI50 [15]: 1550 nM
TGI [15]: 3110 nM
GI50 [16]: 808 nM
TGI [16]: 2460 nM
GI50 [17]: 1420 nM
TGI [17]: 3430 nM
GI50 [18]: 328 nM
TGI [18]: 874 nM
GI50 [19]: 2080 nM
TGI [19]: 3940 nM
GI50 [20]: 201 nM
TGI [20]: 441 nM
GI50 [21]: 438 nM
TGI [21]: 1260 nM
GI50 [22]: 194 nM
TGI [22]: 408 nM
GI50 [23]: 449 nM
TGI [23]: 1510 nM
GI50 [24]: 2010 nM
TGI [24]: 4030 nM
GI50 [25]: 651 nM
TGI [25]: 1910 nM
GI50 [26]: 791 nM
TGI [26]: 2410 nM
GI50 [27]: 516 nM
TGI [27]: 2250 nM
GI50 [28]: 1790 nM
TGI [28]: 3600 nM
GI50 [29]: 1660 nM
TGI [29]: 3180 nM
GI50 [30]: 217 nM
TGI [30]: 436 nM
GI50 [31]: 1720 nM
TGI [31]: 3240 nM
GI50 [32]: 1440 nM
TGI [32]: 2940 nM
GI50 [33]: 1610 nM
TGI [33]: 3120 nM
GI50 [34]: 1540 nM
TGI [34]: 2920 nM
GI50 [35]: 1690 nM
TGI [35]: 3170 nM
GI50 [36]: 1010 nM
TGI [36]: 2520 nM
GI50 [37]: 1580 nM
TGI [37]: 3120 nM
GI50 [38]: 327 nM
TGI [38]: 974 nM
GI50 [39]: 1300 nM
TGI [39]: 2750 nM
GI50 [40]: 1340 nM
TGI [40]: 2790 nM
GI50 [41]: 1640 nM
TGI [41]: 3430 nM
GI50 [42]: 1790 nM
TGI [42]: 3270 nM
GI50 [43]: 2100 nM
TGI [43]: 3720 nM
GI50 [44]: 1850 nM
TGI [44]: 3280 nM
GI50 [45]: 1650 nM
TGI [45]: 3040 nM
GI50 [46]: 1580 nM
TGI [46]: 2990 nM
GI50 [47]: 1440 nM
TGI [47]: 2870 nM
GI50 [48]: 1450 nM
TGI [48]: 2870 nM
GI50 [49]: 1620 nM
TGI [49]: 3050 nM
GI50 [50]: 193 nM
TGI [50]: 387 nM
GI50 [51]: 1440 nM
TGI [51]: 3060 nM
GI50 [52]: 1760 nM
TGI [52]: 3210 nM
GI50 [53]: 285 nM
TGI [53]: 979 nM
GI50 [54]: 1630 nM
TGI [54]: 3080 nM
GI50 [55]: 1590 nM
TGI [55]: 2970 nM
GI50 [56]: 1590 nM
TGI [56]: 3220 nM
